What was measured:
[1] = Dynamic light scattering of the self-assembled probe nanoparticles; format: physicochemical; conditions: compound 3 20 μM in phosphate buffer solution pH=7.4, dynamic light scattering
Description: (§1) 40 μL of compound 3 (1 mM) in a phosphate buffer solution was taken by using a pipette and placed in an ep-tube. 1960 μL of a phosphate buffer solution (pH=7.4) was added into the ep-tube under an ultrasonic condition so that the final concentration of compound 3 was 20 μM. The mixture was stirred for 30 min under room temperature to generate opalescence. In order to verify nano-aggregation behavior thereof, an average particle size thereof measured by a dynamic light scattering experiment was 600 nm, as shown in FIG. 1.

[2] = Linear relationship between fluorescence intensity of the probe nanoparticles and lysophosphatidic acid concentration; conditions: compound 3 20 μM, phosphate buffer pH 7.4, incubated 1 min at room temperature
Description: as §1
A series of different volumes of the stock solution of lysophosphatidic acid in the phosphate buffer solution were respectively added to the system prepared in Example 2, so that the final concentrations of lysophosphatidic acid respectively were 0 μM, 0.2 μM, 0.4 μM, 0.8 μM, 1.0 μM, 1.2 μM, 1.4 μM, 1.8 μM, 2.0 μM, 4.0 μM, 8.0 μM, 10.0 μM, 12.0 μM, 14.0 μM, 16.0 μM, 18.0 μM, 20.0 μM, 25.0 μM, 30.0 μM, 33.0 μM. After all of testing solution were prepared, the testing solutions were mixed uniformly with a vortex. After being incubated for 1 min at room temperature, the fluorescence emission intensity thereof at 557 was measured.

[3] = Selectivity of the fluorescent nanoprobe for detecting lysophosphatidic acid; conditions: compound 3 10 μM, excitation 400 nm
Description: The prepared fluorescent molecular probe solution was used for evaluating the selectivity of the probe to lysophosphatidic acid. An excitation wavelength of the nanoprobe was 400 nm. The concentration of the compound 3 in the system was 10 μM. Lysophosphatidic acid with a final concentration of 50 μM and L-proline, glycerin, sodium phosphate, magnesium sulfate, sodium acetate, sodium nitrate, sodium fluoride, glucose, urea, and lysophosphatidyl choline (LPC) with a final concentration of 1 mM were respectively added into the system. After fully mixing, the systems were incubated for 1 min at room temperature. Then fluorescence emission spectra thereof were measured and the fluorescence emission intensities at 557 nm were recorded.

average particle size [1]: 600 nm
Compound: COc1ccc(-c2nc(-c3cc[n+](CCCCCCCCCCCC[n+]4ccccc4)cc3)n(-c3ccccc3)c2-c2ccc(OC)cc2)cc1 [Compound 3]
lysophosphatidic acid concentration range with good linear relationship to fluorescence intensity at 557 nm [2]: 0 to 33 µM
fluorescence emission at 557 nm after addition of lysophosphatidic acid ([3]; lysophosphatidic acid 50 μM, 1 min at room temperature): strong yellow fluorescence
fluorescence emission at 557 nm after addition of other substances ([3]; L-proline, glycerin, sodium phosphate, magnesium sulfate, sodium acetate, sodium nitrate, sodium fluoride, glucose, urea, LPC each 1 mM): could not be observed to generate yellow fluorescence

From patent US12180183B2, “Water-soluble fluorescent probe and nanoparticals with aggregation-induced emission effect for ovarian cancer and preparation method and use thereof” (HUNAN TARGETING DETECTION TECHNOLOGY CO., LTD, priority 2018, dated 2024)
